Reference: the NIST ThermoML archive (doi:10.1016/j.fluid.2011.04.017)
Numbers after ± are expanded uncertainties.

Settings: 101.33 kPa, Liquid, Vibrating tube method

Compound	mass density (298.1 K) [kg/m3]	mass density (293.15 K) [kg/m3]	mass density (298.15 K) [kg/m3]
CCCCn1cc[n+](C)c1.F[P-](F)(F)(F)(F)F [1-butyl-3-methylimidazolium hexafluorophosphate]	1366.38 ± 1.7	–	–
CCCCCCCCCn1cc[n+](C)c1.F[P-](F)(F)(F)(F)F [1-nonyl-3-methylimidazolium hexafluorophosphate]	–	1198.32 ± 0.2	1194.34 ± 0.19
